Measurements taken from US4868303A, “Bis-dioxopiperazine derivatives” (Zenyaku Kogyo Kabushiki Kaisha, priority 1986, dated 1989).
Structures can show the parent of a compound that is named as a salt.

Key:
[1] = tested on: P388 lymphocytic leukemia; test: Growth inhibition of tumor cells of P388 lymphocytic leukemia in vitro; type: cell-based, mouse (CDF1); settings: Mus musculus, 48 hours at 37° C., read-out: 50% Inhibitory concentration of cell growth (IC50)
Description: (I) Growth Inhibition of Tumor Cells of P388 Lymphocytic Leukemia in Vitro:
Tumor cells were collected aseptically with capillary tube from ascites in CDF1 female mice transplanted intraperitoneally with 1×10^6cells of P388 lymphocytic leukemia 5 days before. Cell suspension was prepared at 5×10^4 cells/0.5 ml in a RPMI1640 medium supplemented with 10% fetal calf serum, kanamycin (0.1 mg/ml) and 2-hydroxyethyldisulfide (0.01 mM). Each test sample was dissolved or suspended in the medium at a concentration of 1×10^-1 -1×10^-5 mM.
A test tube with Molton stopper loosely involving 0.5 ml each of the cell suspension and the sample suspension was kept for 48 hours at 37° C. in an incubator supplied with air containing 5% carbon dioxide. […] The cells harvested therefrom was counted by using of a Coulter Counter and the inhibition of cell growth was calculated by the following formula:
Growth Inhibition (%)=(1-T/C)×100
T: number of cells in the culture containing test sample
C: number of cells in the culture of control

[2] = tested on: P388 lymphocytic leukemia; test: Increase in life span on P388 lymphocytic leukemia tumor-transplanted mouse; type: in vivo, mouse (CDF1); settings: P388, ip, 24 h, intraperitoneal, day 1 and 5th day after transplantation, read-out: Rate of increase in life span (ILS); for ILS at 2.5 mg/kg: daily dose 2.5 mg/kg; for ILS at 3 mg/kg: daily dose 3.0 mg/kg; for ILS at 2.2 mg/kg: daily dose 2.2 mg/kg
Description: (III) Increase in Life Span on P388 Lymphocytic Leukemia Tumor-transplantedMouse:
The treated group to which the test sample was administered consisted of seven mice, while the control group consisted of ten mice. Six weeks old male mice (CDF1, 25±2 g of body weight) were employed as host animals.
Tumor cells (1.0×10^6) of P388 lymphocytic leukemia were transplanted intraperitoneally into each mouse. The treatment was effected one day after the transplantation and on 5th day by administering prescribed dose of each test sample intraperitoneally to the mice.
Antitumor activity of the test sample was evaluated by the rate of increase in life span (ILS) which was calculated with the following formula.
T': median survival time of treated mice
C': median survival time of control mice

V79 cells = test: Inhibitory effect on colony formation of V79 cells in vitro; type: cell-based, Chinese hamster; settings: Cricetulus griseus, 96 hours with sample, read-out: 90% inhibitory concentration (IC90)
Description: (II) Inhibitory effect on Colony Formation of V79 Cells in Vitro:
V79 cells established from Chinese hamster lung fibroblastoma were cultured routinely on plastic dishes (.phi. 60 mm) in RPMI 1640 medium supplemented with 10% fetal calf serum and kanamycin (0.1 mg/ml). Each confluent culture was then trypsinized by the addition of 1 ml of trypsin-EDTA solution (supplied by the firm GIBCO) for 5 minutes at 37° C. in an incubator supplied with humidified air containing 5% CO2.
Homogeneous suspension of V79 cells thus obtained was diluted to 100, 200 and 400 viable cells/ml with the medium, and 1 ml each of them was transferred to other plastic dishes (.phi. 60 mm) containing 1.85 ml of the medium, and diluted to 100, 200 and 400 viable cells/dish.
Each test sample was dissolved in DMSO at the concentration of 20 mM and diluted with the medium to the final concentration of 2×10^-3 -2×10^-10 mM.
Each test dish was kept for 24 hours at 37° C. in an incubator supplied with humidified air containing 5% CO2, and was further cultured for 96 hours after 150 μl of the sample solution was added thereto.
The cells were gently washed once with Mg- and Ca-free phosphate-buffered saline [PBS(-)] and fixed with 1 ml of 3.5% HCHO-PBS(-) solution for 2 hours, then stained with a crystal violet ethanol solution.
The 90% inhibitory concentration (IC90) was calculated by comparing the number of visible colonies on the sample dish with that on the control dish.

Compound: C[C@H]([C@H](C)N1CC(=O)N(COC(=O)OCc2ccc([N+](=O)[O-])cc2)C(=O)C1)N1CC(=O)N(COC(=O)OCc2ccc([N+](=O)[O-])cc2)C(=O)C1 [Sample 8, meso-2,3-bis[4-(4-nitrobenzyloxycarbonyloxymethyl)-3,5-dioxopiperazin-1-yl]butane]
- IC50 [1]: 150 nM

Compound: C[C@H]([C@H](C)N1CC(=O)N(COC(=O)[C@H](NC(=O)OC(C)(C)C)c2ccccc2)C(=O)C1)N1CC(=O)N(COC(=O)[C@H](NC(=O)OC(C)(C)C)c2ccccc2)C(=O)C1 [Sample 5, meso-2,3-bis[4-[(R)-2-N-tert-butoxycarbonylamino-2-phenylacetoxymethyl]-3,5-dioxopiperazin-1-yl]butane]
- IC50 [1]: 32 nM

Compound: CC(=O)OCN1C(=O)CN([C@H](C)[C@H](C)N2CC(=O)N(COC(C)=O)C(=O)C2)CC1=O [Sample 1, meso-2,3-bis(4-acetoxymethyl-3,5-dioxopiperazin-1-yl)butane]
- IC50 [1]: 300 nM
- ILS at 1.5 mg/kg ([2]; daily dose 1.5 mg/kg): 152%
- IC90 (V79 cells): 0.089 nM

Compound: C[C@H]([C@H](C)N1CC(=O)N(COC(=O)COc2ccc(Cl)cc2Cl)C(=O)C1)N1CC(=O)NC(=O)C1 (relative stereo) [Sample 11, erythro-2-[4-(2,4-dichlorophenoxyacetoxymethyl)-3,5-dioxopiperazin-1-yl]-3-(3,5-dioxopiperazin-1-yl)butane]
- IC50 [1]: 77 nM
- ILS at 2.7 mg/kg ([2]; daily dose 2.7 mg/kg): 132%
- IC90 (V79 cells): 0.082 nM

Compound: C[C@H]([C@H](C)N1CC(=O)N(COC(=O)Cc2ccccc2Cl)C(=O)C1)N1CC(=O)NC(=O)C1 (relative stereo) [Sample 10, erythro-2-[4-(2-chlorophenylacetoxymethyl)-3,5-dioxopiperazin-1-yl]-3-(3,5-dioxopiperazin-1-yl)butane]
- IC50 [1]: 7.1 nM
- ILS at 2.5 mg/kg [2]: 162%
- IC90 (V79 cells): 0.073 nM

Compound: C[C@H]([C@H](C)N1CC(=O)N(COC(=O)c2ccccc2)C(=O)C1)N1CC(=O)N(COC(=O)c2ccccc2)C(=O)C1 [Sample 16, meso-2,3-bis(4-benzoyloxymethyl-3,5-dioxopiperazin-1-yl)butane]
- IC50 [1]: 250 nM
- ILS at 3 mg/kg [2]: 150%
- IC90 (V79 cells): 0.098 nM

Compound: CC(C(C)N1CC(=O)N(COC(=O)C=Cc2cccc(Cl)c2)C(=O)C1)N1CC(=O)N(COC(=O)C=Cc2cccc(Cl)c2)C(=O)C1 (stereo not drawn) [Sample 4, meso-2,3-bis[4-(3-chlorocinnamoyloxymethyl)-3,5-dioxopiperazin-1-yl]butane]
- IC50 [1]: 240 nM

Compound: C[C@H]([C@H](C)N1CC(=O)N(COC(=O)OCc2ccc([N+](=O)[O-])cc2)C(=O)C1)N1CC(=O)NC(=O)C1 (relative stereo) [Sample 15, erythro-2-[4-(4-nitrobenzyloxycarbonyloxymethyl)-3,5-dioxopiperazin-1-yl]-3-(3,5-dioxopiperazin-1-yl)butane]
- IC50 [1]: 240 nM
- ILS at 2.6 mg/kg ([2]; daily dose 2.6 mg/kg): 177%

Compound: C[C@H]([C@H](C)N1CC(=O)N(COC(=O)Cc2ccccc2Cl)C(=O)C1)N1CC(=O)N(COC(=O)Cc2ccccc2Cl)C(=O)C1 [Sample 2, meso-2,3-bis[4-(2-chlorophenylacetoxymethyl)-3,5-dioxopiperazin-1-yl]butane]
- IC50 [1]: 8.6 nM
- ILS at 3.4 mg/kg ([2]; daily dose 3.4 mg/kg): 107%

Compound: CC(C)COC(=O)OCN1C(=O)CN([C@H](C)[C@H](C)N2CC(=O)N(COC(=O)OCC(C)C)C(=O)C2)CC1=O [Sample 7, meso-2,3-bis(4-isobutoxycarbonyloxymethyl-3,5-dioxopiperazin-1-yl)butane]
- IC50 [1]: 84 nM
- ILS at 3 mg/kg [2]: 104%
- IC90 (V79 cells): 0.0045 nM

Compound: C[C@H]([C@H](C)N1CC(=O)N(COC(=O)OCc2ccccc2)C(=O)C1)N1CC(=O)N(COC(=O)OCc2ccccc2)C(=O)C1 [Sample 17, meso-2,3-bis(4-benzyloxycarbonyloxymethyl-3,5-dioxopiperazin-1-yl)butane]
- IC50 [1]: 56 nM
- ILS at 3.2 mg/kg ([2]; daily dose 3.2 mg/kg): 179%

Compound: CC(=O)OCN1C(=O)CN([C@@H](C)[C@@H](C)N2CC(=O)NC(=O)C2)CC1=O (relative stereo) [Sample 9, erythro-2-(4-acetoxymethyl-3,5-dioxopiperazin-1-yl)-3-(3,5-dioxopiperazin-1-yl)butane]
- IC50 [1]: 74 nM

Compound: C[C@H]([C@H](C)N1CC(=O)NC(=O)C1)N1CC(=O)NC(=O)C1 [Sample B, meso-2,3-bis(3,5-dioxopiperazin-1-yl)butane, reference compound]
- IC90 (V79 cells): 5.3 nM

Compound: CC(C)COC(=O)OCN1C(=O)CN(CCN2CC(=O)N(COC(=O)OCC(C)C)C(=O)C2)CC1=O [Sample A, 1,2-bis(4-isobutoxycarbonyloxymethyl-3,5-dioxopiperazin-1-yl)ethane, reference compound]
- IC50 [1]: 16000 nM
- ILS at 3 mg/kg [2]: 5%
- ILS at 250 mg/kg ([2]; daily dose 250 mg/kg (*Adequate dose)): 106%
- IC90 (V79 cells): 110 nM

Compound: C[C@H]([C@H](C)N1CC(=O)N(COC(=O)OCc2ccccc2)C(=O)C1)N1CC(=O)NC(=O)C1 (relative stereo) [Sample 19, erythro-2-(4-benzyloxycarbonyloxymethyl-3,5-dioxopiperazin-1-yl)-3-(3,5-dioxopiperazin-1-yl)butane]
- IC50 [1]: 11 nM
- ILS at 2.4 mg/kg ([2]; daily dose 2.4 mg/kg): 132%
- IC90 (V79 cells): 0.09 nM

Compound: C[C@H]([C@H](C)N1CC(=O)N(COC(=O)COc2ccc(Cl)cc2Cl)C(=O)C1)N1CC(=O)N(COC(=O)COc2ccc(Cl)cc2Cl)C(=O)C1 [Sample 3, meso-2,3-bis[4-(2,4-dichlorophenoxyacetoxymethyl)-3,5-dioxopiperazin-1-yl]butane]
- IC50 [1]: 71 nM

Compound: C[C@H]([C@H](C)N1CC(=O)N(COC(=O)c2ccco2)C(=O)C1)N1CC(=O)NC(=O)C1 (relative stereo) [Sample 18, erythro-2-[4-(2-furoyloxymethyl)-3,5-dioxopiperazin-1-yl]-3-(3,5-dioxopiperazin-1-yl)butane]
- IC50 [1]: 42 nM
- ILS at 2.2 mg/kg [2]: 185%
- IC90 (V79 cells): 0.1 nM

Compound: CC(C(C)N1CC(=O)N(COC(=O)C=Cc2cccc(Cl)c2)C(=O)C1)N1CC(=O)NC(=O)C1 (stereo not drawn) [Sample 12, erythro-2-[4-(3-chlorocinnamoyloxymethyl)-3,5-dioxopiperazin-1-yl]-3-(3,5-dioxopiperazin-1-yl)butane]
- IC50 [1]: 11 nM
- ILS at 2.5 mg/kg [2]: 90%
- IC90 (V79 cells): 0.098 nM

Compound: C[C@H]([C@H](C)N1CC(=O)N(COC(=O)c2ccccc2)C(=O)C1)N1CC(=O)NC(=O)C1 (relative stereo) [Sample 13, erythro-2-(4-benzoyloxymethyl-3,5-dioxopiperazin-1-yl)-3-(3,5-dioxopiperazin-1-yl)butane]
- IC50 [1]: 38 nM
- ILS at 2.2 mg/kg [2]: 118%

Compound: C[C@H]([C@H](C)N1CC(=O)N(COC(=O)[C@H](N)c2ccccc2)C(=O)C1)N1CC(=O)N(COC(=O)[C@H](N)c2ccccc2)C(=O)C1 [Sample 6, meso-2,3-bis[4-[(R)-2-amino-2-phenylacetoxymethyl]-3,5-dioxopiperazin-1-yl]butane trifluoroacetate]
- IC50 [1]: 52 nM
